Assay: xn = mol fraction of the nth substance listed

CCOCCOCCOCCO + ClC(Cl)=C(Cl)Cl
298.15 K, 101.33 kPa
Settings	viscosity [mPa·s]
x1 = 0.0072	0.863
x1 = 0.0185	0.892
x1 = 0.0339	0.931
x1 = 0.0489	0.969
x1 = 0.0609	1.008
x1 = 0.0867	1.081
x1 = 0.1081	1.154
x1 = 0.1487	1.29
x1 = 0.1926	1.459
x1 = 0.2354	1.634
x1 = 0.2903	1.893
x1 = 0.3204	2.052
x1 = 0.3495	2.207
x1 = 0.3887	2.429
x1 = 0.4239	2.631
x1 = 0.4633	2.863
x1 = 0.5019	3.105
x1 = 0.5442	3.384
x1 = 0.5861	3.665
x1 = 0.6345	4.013
x1 = 0.6893	4.413
x1 = 0.7441	4.852
x1 = 0.8008	5.303
x1 = 0.8471	5.684
x1 = 0.9061	6.191
x1 = 0.9387	6.486
x1 = 0.9502	6.589
x1 = 0.9795	6.871

N#Cc1ccccc1 + c1ccccc1
Settings	viscosity [mPa·s]
298.15 K, 101 kPa, x1 = 0.2	0.688
298.15 K, 101 kPa, x2 = 0.1681	1.098
298.15 K, 101 kPa, x2 = 0.3126	0.9985
298.15 K, 101 kPa, x2 = 0.4381	0.9214
298.15 K, 101 kPa, x2 = 0.5481	0.8456
298.15 K, 101 kPa, x2 = 0.6453	0.7942
298.15 K, 101 kPa, x2 = 0.7318	0.7145
298.15 K, 101 kPa, x2 = 0.8093	0.6845
298.15 K, 101 kPa, x2 = 0.8792	0.6157
298.15 K, 101 kPa, x2 = 0.9423	0.5987
303.15 K, 101 kPa, x2 = 0.1133	1.013
303.15 K, 101 kPa, x2 = 0.1681	0.9758
303.15 K, 101 kPa, x2 = 0.2233	0.932
303.15 K, 101 kPa, x2 = 0.3126	0.9251
303.15 K, 101 kPa, x2 = 0.3302	0.866
303.15 K, 101 kPa, x2 = 0.434	0.812
303.15 K, 101 kPa, x2 = 0.4381	0.8542
303.15 K, 101 kPa, x2 = 0.5349	0.766
303.15 K, 101 kPa, x2 = 0.5481	0.8025
303.15 K, 101 kPa, x2 = 0.633	0.7225
303.15 K, 101 kPa, x2 = 0.6453	0.7256
303.15 K, 101 kPa, x2 = 0.7285	0.68
303.15 K, 101 kPa, x2 = 0.7318	0.6953
303.15 K, 101 kPa, x2 = 0.8093	0.6245
303.15 K, 101 kPa, x2 = 0.8214	0.6395
303.15 K, 101 kPa, x2 = 0.8792	0.5946
303.15 K, 101 kPa, x2 = 0.9119	0.5996
303.15 K, 101 kPa, x2 = 0.9423	0.5742
303.15 K, 101.32 kPa, x2 = 0.1527	1.001
303.15 K, 101.32 kPa, x2 = 0.3165	0.902
303.15 K, 101.32 kPa, x2 = 0.4174	0.831
303.15 K, 101.32 kPa, x2 = 0.5485	0.765
303.15 K, 101.32 kPa, x2 = 0.6569	0.715
303.15 K, 101.32 kPa, x2 = 0.7859	0.659
303.15 K, 101.32 kPa, x2 = 0.9145	0.607
308.15 K, 101 kPa, x1 = 0.2	0.605
308.15 K, 101 kPa, x2 = 0.1681	0.9852
308.15 K, 101 kPa, x2 = 0.3126	0.9457
308.15 K, 101 kPa, x2 = 0.4381	0.8352
308.15 K, 101 kPa, x2 = 0.5481	0.7648
308.15 K, 101 kPa, x2 = 0.6453	0.7054
308.15 K, 101 kPa, x2 = 0.7318	0.6582
308.15 K, 101 kPa, x2 = 0.8093	0.6214
308.15 K, 101 kPa, x2 = 0.8792	0.5743
308.15 K, 101 kPa, x2 = 0.9423	0.5621
313.15 K, 101 kPa, x2 = 0.1681	0.9756
313.15 K, 101 kPa, x2 = 0.3126	0.9143
313.15 K, 101 kPa, x2 = 0.4381	0.8215
313.15 K, 101 kPa, x2 = 0.5481	0.7236
313.15 K, 101 kPa, x2 = 0.6453	0.6974
313.15 K, 101 kPa, x2 = 0.7318	0.6318
313.15 K, 101 kPa, x2 = 0.8093	0.5845
313.15 K, 101 kPa, x2 = 0.8792	0.5413
313.15 K, 101 kPa, x2 = 0.9423	0.5128
318.15 K, 101 kPa, x1 = 0.2	0.532
323.15 K, 101 kPa, x1 = 0.2	0.498

CCCOCCO + CCCO
298.15 K, 101.33 kPa
Settings	viscosity [mPa·s]
x1 = 0.0085	1.95
x1 = 0.0212	1.945
x1 = 0.0386	1.944
x1 = 0.0573	1.944
x1 = 0.0817	1.943
x1 = 0.0917	1.942
x1 = 0.1295	1.944
x1 = 0.157	1.948
x1 = 0.2095	1.961
x1 = 0.2715	1.976
x1 = 0.323	1.994
x1 = 0.3675	2.01
x1 = 0.4185	2.031
x1 = 0.4527	2.046
x1 = 0.5174	2.072
x1 = 0.5743	2.103
x1 = 0.6243	2.125
x1 = 0.6804	2.151
x1 = 0.7324	2.186
x1 = 0.7821	2.219
x1 = 0.853	2.257
x1 = 0.9063	2.294
x1 = 0.9599	2.326

O=P([O-])([O-])[O-].[K+].[K+].[K+] + O
viscosity [mPa·s], 101 kPa
Settings	x1 = 0.0018	x1 = 0.0054	x1 = 0.0089	x1 = 0.012	x1 = 0.016
298.15 K	0.9999	1.068	1.197	1.397	1.648
303.15 K	0.8476	0.9587	1.107	1.268	1.492
308.15 K	0.7639	0.8485	0.9715	1.123	1.341

Nc1cccc2ccccc12 + CCO
viscosity [mPa·s], 101 kPa
Settings	x1 = 0.0225	x1 = 0.04399	x1 = 0.08427	x1 = 0.1213	x1 = 0.1554	x1 = 0.187	x1 = 0.2163
293.15 K	1.348	1.454	1.7	1.987	2.308	2.667	3.025
303.15 K	1.094	1.176	1.362	1.56	1.786	2.029	2.27
313.15 K	0.903	0.966	1.104	1.251	1.41	1.587	1.759
323.15 K	0.745	0.791	0.899	1.006	1.121	1.254	1.377

CCCOCCO + O=[N+]([O-])c1ccccc1
298.15 K, 101 kPa
Settings	viscosity [mPa·s]
x2 = 0.0509	2.336
x2 = 0.1085	2.326
x2 = 0.2052	2.316
x2 = 0.3224	2.304
x2 = 0.3978	2.292
x2 = 0.4501	2.279
x2 = 0.5017	2.262
x2 = 0.5513	2.241
x2 = 0.6026	2.216
x2 = 0.6998	2.154
x2 = 0.8045	2.066
x2 = 0.9028	1.957
x2 = 0.9525	1.888

From the CheMixHub viscosity set
